Consider 33 compounds from patent US20250326738A1, “MALT1 Modulators and Uses Thereof” (Rarefied Biosciences, Inc., priority 2022, published 2025).

The target of one test is T1, full length MALT1 (Homo sapiens, UniProt Q9UDY8).
T1 construct: measuring enzymatic activity of full length MALT1 at varying concentrations of compound
T1 sequence (Q9UDY8 1-824): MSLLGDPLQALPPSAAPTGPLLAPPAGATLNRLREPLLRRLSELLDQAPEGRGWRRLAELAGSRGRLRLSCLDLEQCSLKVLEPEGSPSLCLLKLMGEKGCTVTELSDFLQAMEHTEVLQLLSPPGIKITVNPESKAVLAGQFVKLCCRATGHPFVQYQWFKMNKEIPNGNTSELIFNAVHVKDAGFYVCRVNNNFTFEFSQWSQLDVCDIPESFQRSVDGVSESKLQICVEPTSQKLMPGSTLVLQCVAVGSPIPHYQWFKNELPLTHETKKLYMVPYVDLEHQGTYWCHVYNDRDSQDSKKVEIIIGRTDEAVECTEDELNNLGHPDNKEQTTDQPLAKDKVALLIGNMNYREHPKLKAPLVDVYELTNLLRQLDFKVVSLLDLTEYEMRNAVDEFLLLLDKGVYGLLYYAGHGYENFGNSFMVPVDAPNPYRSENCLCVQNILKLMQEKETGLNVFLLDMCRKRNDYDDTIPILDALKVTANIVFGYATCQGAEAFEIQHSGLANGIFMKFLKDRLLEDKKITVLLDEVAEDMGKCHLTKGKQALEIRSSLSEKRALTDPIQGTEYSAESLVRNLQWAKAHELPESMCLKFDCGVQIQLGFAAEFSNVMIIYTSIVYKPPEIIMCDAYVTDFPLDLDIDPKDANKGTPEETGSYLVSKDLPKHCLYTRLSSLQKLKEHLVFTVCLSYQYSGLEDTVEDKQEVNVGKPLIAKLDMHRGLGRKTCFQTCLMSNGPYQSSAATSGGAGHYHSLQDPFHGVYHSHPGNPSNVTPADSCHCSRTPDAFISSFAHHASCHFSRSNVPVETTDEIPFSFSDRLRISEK
In words: MALT1 biochemical assay (fluorogenic peptide substrate cleavage). Conditions: full length MALT1, 15 nM enzyme, 30 μM peptide substrate, 30 min pre-incubation, 60 min reaction; mean if tested more than once. How it is done: Inhibitor potency was evaluated by measuring enzymatic activity of full length MALT1 at varying concentrations of compound. The enzymatic assay consists of a single substrate reaction that monitors the release of a fluorescent dye upon cleavage of the peptide substrate. […] The assay buffer consists of 50 mM Hepes, pH 7.5, 0.8 M sodium citrate, 1 mM DTT, 0.004% tween-20, and 0.005% bovine serum albumin (BSA). […] The reaction was quenched after 60 minutes with the addition of iodoacetate at a final concentration of 10 mM. Total fluorescence was measured using an Envision (PerkinElmer) with fluorescence excitation at 485 nm and emission at 520 nm.
The reaction was initiated with the addition of 10 μL of peptide substrate. […] IC50 values were calculated by fitting the concentration-response curves to a four-parameter logistic equation in GraphPad Prism.
“N/A” indicates not tested.

In the next test the test system is Jurkat IL-2. The test is described as follows: Jurkat IL-2 assay (IL-2 inhibition by ELISA after anti-CD3/28/2 stimulation). It is filed as cell-based. Conditions: Homo sapiens; Jurkat clone E6.1, IL-2 in supernatant, 30 min pre-incubation, anti-CD3/28/2 stimulation 24 hours; mean if tested more than once. On the procedure: Inhibition was determined in a cell-based assay using Jurkat (ATCC, clone E6.1), an immortalized T-cell line, exposed to a dose response of compound and assessed for viability, and IL-2 inhibition by ELISA. Cells were cultured in RPMI/10% FBS (Invitrogen 11875093, Atlanta Biologicals S12450H), maintained below 3E6/mL and only used in assays while below passage 25. Compounds were stamped by ECHO onto 384w plates (PerkinElmer Culturplate, 6007680). The cells were plated in fresh media on top of compound and incubated for 30 minutes before stimulation with soluble anti-CD3/28/2 (Stemcell, 10970) for 24 hours. Supernatant was collected and assessed for IL-2 (MSD, 384w, L21SA-1). To assess viability of cells treated with compound, cells were lysed with CTG reagent (Promega, G7570), and measured by luminometer. […] IC50s calculated using 4-parameter fit in GraphPad Prism.
“N/A” indicates not tested. For a compound that was tested in more than one experiment, the result shown represents the mean value.

Bounds are passed on as bounds.

One may read the IC50 as the midpoint of a concentration-inhibition curve. The low end stands for higher potency, the high end for lower potency. Turning to `CN(C(=O)C1CCS(=O)(=O)CC1)[C@@H](c1ccc(Nc2cnn(C)c2C(F)(F)F)cc1)C(F)(F)F` [Compound 1.1, (S)—N-methyl-N-(2,2,2-trifluoro-1-(4-((1-methyl-5-(trifluoromethyl)-1H-pyrazol-4-yl)amino)phenyl)ethyl)tetrahydro-2H-thiopyran-4-carboxamide 1,1-dioxide], the IC50 on full length MALT1 and in the test on Jurkat IL-2 was > 1000 nM each time.

With `CN(C(=O)C1CCS(=O)(=O)CC1)[C@@H](c1ccc(Nc2cnn(-c3cccc4ncccc34)c2C(F)(F)F)cc1)C(F)(F)F` [Compound 1.2], the half-maximal inhibitory concentration (IC50) against full length MALT1 and with Jurkat IL-2 was 100 to 1000 nM in each case.

With `Cc1ccccc1-n1ncc(Nc2ccc([C@H](N(C)C(=O)C3CCS(=O)(=O)CC3)C(F)(F)F)cc2)c1C(F)(F)F` [Compound 1.3], the IC50 on full length MALT1 was > 1000 nM; in the test on Jurkat IL-2 it was 100 to 1000 nM.

Take `CN(C(=O)C1CCS(=O)(=O)CC1)[C@@H](c1ccc(Nc2cnn(C)c2-c2ccccc2)cc1)C(F)(F)F` [Compound 1.4]: the IC50 on full length MALT1 and in the test with Jurkat IL-2 was > 1000 nM in each case.

Turning to `CC(C)c1c(Nc2ccc([C@H](N(C)C(=O)C3CCS(=O)(=O)CC3)C(F)(F)F)cc2)cnn1C` [Compound 1.5], the IC50 against full length MALT1 and in the test on Jurkat IL-2 was > 1000 nM throughout.

Consider `CN(C(=O)C1CCS(=O)(=O)CC1)[C@@H](c1ccc(Nc2cnn(-c3ccccc3)c2C(F)(F)F)cc1)C(F)(F)F` [Compound 1.6], for which the half-maximal inhibitory concentration (IC50) against full length MALT1 and in the test on Jurkat IL-2 was 100 to 1000 nM throughout.

With `CN(C(=O)C1CCS(=O)(=O)CC1)[C@@H](c1ccc(Nc2cnn(C3CC3)c2C(F)(F)F)cc1)C(F)(F)F` [Compound 1.7], the IC50 on full length MALT1 and in the test on Jurkat IL-2 was 100 to 1000 nM each time.

As to `CC(C)c1c(Nc2ccc([C@H](N(C)C(=O)C3CCS(=O)(=O)CC3)C(F)(F)F)cc2)cnn1-c1ccccc1` [Compound 1.8], the half-maximal inhibitory concentration (IC50) against full length MALT1 and in the test on Jurkat IL-2 was 100 to 1000 nM throughout.

For the compound `CC(C)n1ncc(Nc2ccc([C@H](N(C)C(=O)C3CCS(=O)(=O)CC3)C(F)(F)F)cc2)c1C(F)(F)F` [Compound 1.9], the 50% inhibitory concentration (IC50) at full length MALT1 and in the test on Jurkat IL-2 was 100 to 1000 nM each time.

In the case of `CN(C(=O)C1CCS(=O)(=O)CC1)[C@@H](c1ccc(Nc2cnn(CC(C)(C)O)c2C(F)(F)F)cc1)C(F)(F)F` [Compound 1.10], the IC50 on full length MALT1 and with Jurkat IL-2 was > 1000 nM in each case.

Regarding `COCC(C)n1ncc(Nc2ccc([C@H](N(C)C(=O)C3CCS(=O)(=O)CC3)C(F)(F)F)cc2)c1C(F)(F)F` (some centres unmarked) [Compound 1.11], the concentration for half-maximal inhibition (IC50) against full length MALT1 and in the test with Jurkat IL-2 was > 1000 nM in each case.

As for `CN(C(=O)C1CCS(=O)(=O)CC1)[C@@H](c1ccc(Nc2cnn(CC(C)(C)C)c2C(F)(F)F)cc1)C(F)(F)F` [Compound 1.12], the concentration for half-maximal inhibition (IC50) against full length MALT1 and with Jurkat IL-2 was > 1000 nM in each case.

For `CN(C(=O)C1CCS(=O)(=O)CC1)[C@@H](c1ccc(Nc2cnn(-c3cccnc3)c2C(F)(F)F)cc1)C(F)(F)F` [Compound 1.13], the half-maximal inhibitory concentration (IC50) at full length MALT1 and in the test with Jurkat IL-2 was < 100 nM throughout.

Regarding `CN(C(=O)C1CCS(=O)(=O)CC1)[C@@H](c1ccc(Nc2cnn(-c3ccncc3)c2C(F)(F)F)cc1)C(F)(F)F` [Compound 1.14], the IC50 against full length MALT1 was 100 to 1000 nM; in the test on Jurkat IL-2 it was < 100 nM.

As for `CN(C(=O)C1CCS(=O)(=O)CC1)[C@@H](c1ccc(Nc2cnn(-c3ccccn3)c2C(F)(F)F)cc1)C(F)(F)F` [Compound 1.15], the half-inhibitory concentration (IC50) against full length MALT1 and in the test with Jurkat IL-2 was < 100 nM each time.

Take `CN(C(=O)C1CCS(=O)(=O)CC1)[C@@H](c1ccc(Nc2cnn(-c3ccccc3C#N)c2C(F)(F)F)cc1)C(F)(F)F` [Compound 1.16]: the half-maximal inhibitory concentration (IC50) on full length MALT1 and in the test on Jurkat IL-2 was 100 to 1000 nM each time.

`CN(C(=O)C1CCS(=O)(=O)CC1)[C@@H](c1ccc(Nc2cnn(-c3cccc(C#N)c3)c2C(F)(F)F)cc1)C(F)(F)F` [Compound 1.17]: the concentration for half-maximal inhibition (IC50) at full length MALT1 and in the test on Jurkat IL-2 was < 100 nM throughout.

On to `CN(C(=O)C1CCS(=O)(=O)CC1)[C@@H](c1ccc(Nc2cnn(-c3ncccn3)c2C(F)(F)F)cc1)C(F)(F)F` [Compound 1.18], for which the IC50 at full length MALT1 and with Jurkat IL-2 was > 1000 nM each time.

Regarding `CN(C(=O)C1CCS(=O)(=O)CC1)[C@@H](c1ccc(Nc2cnn(-c3cnccn3)c2C(F)(F)F)cc1)C(F)(F)F` [Compound 1.19], the results for the IC50 against full length MALT1 and in the test with Jurkat IL-2 were 100 to 1000 nM and < 100 nM, respectively.

`CN(C(=O)C1CCS(=O)(=O)CC1)[C@@H](c1ccc(Nc2cnn(-c3ccncn3)c2C(F)(F)F)cc1)C(F)(F)F` [Compound 1.20]: the IC50 on full length MALT1 and in the test on Jurkat IL-2 was < 100 nM each time.

Consider `CN(C(=O)C1CCS(=O)(=O)CC1)[C@@H](c1ccc(Nc2cnn(-c3cccnn3)c2C(F)(F)F)cc1)C(F)(F)F` [Compound 1.21], for which the IC50 on full length MALT1 and with Jurkat IL-2 was < 100 nM in each case.

As for `CN(C(=O)C1CCS(=O)(=O)CC1)[C@@H](c1ccc(Nc2cnn(-c3ccnnc3)c2C(F)(F)F)cc1)C(F)(F)F` [Compound 1.22], the 50% inhibitory concentration (IC50) on full length MALT1 is < 100 nM; in the test with Jurkat IL-2 it was 100 to 1000 nM.

In the case of `COC(C)c1c(Nc2ccc([C@H](N(C)C(=O)C3CCS(=O)(=O)CC3)C(F)(F)F)cc2)cnn1-c1cccnc1` (some centres unmarked) [Compound 1.23], the IC50 at full length MALT1 and with Jurkat IL-2 was 100 to 1000 nM throughout.

Consider `CC(O)c1c(Nc2ccc([C@H](N(C)C(=O)C3CCS(=O)(=O)CC3)C(F)(F)F)cc2)cnn1-c1cccnc1` (some centres unmarked) [Compound 1.24], for which the IC50 was < 100 nM at full length MALT1 and 100 to 1000 nM in the test with Jurkat IL-2.

For the compound `CC(=O)N1CCC(C(=O)N(C)[C@@H](c2ccc(Nc3cnn(-c4ccccc4)c3C(F)(F)F)cc2)C(F)(F)F)CC1` [Compound 1.25], the IC50 against full length MALT1 was 100 to 1000 nM; in the test with Jurkat IL-2, < 100 nM.

As to `CC(=O)N1CCC(C(=O)N(C)[C@@H](c2ccc(Nc3cnn(-c4ccccc4)c3C(C)C)cc2)C(F)(F)F)CC1` [Compound 1.26], the concentration for half-maximal inhibition (IC50) against full length MALT1 and in the test on Jurkat IL-2 was 100 to 1000 nM each time.

For the compound `CC(=O)N1CCC(C(=O)N(C)[C@@H](c2ccc(Nc3cnn(-c4cccnc4)c3C(F)(F)F)cc2)C(F)(F)F)CC1` [Compound 1.27], the IC50 against full length MALT1 and in the test with Jurkat IL-2 was < 100 nM in each case.

Regarding `CC(=O)N1CCC(C(=O)N(C)[C@@H](c2ccc(Nc3cnn(-c4cccc(C#N)c4)c3C(F)(F)F)cc2)C(F)(F)F)CC1` [Compound 1.28], the 50% inhibitory concentration (IC50) against full length MALT1 and in the test with Jurkat IL-2 was < 100 nM each time.

Consider `CC(=O)N1CCC(C(=O)N(C)[C@@H](c2ccc(Nc3cnn(-c4ccccn4)c3C(F)(F)F)cc2)C(F)(F)F)CC1` [Compound 1.29], for which the results for the IC50 against full length MALT1 and with Jurkat IL-2 were 100 to 1000 nM and < 100 nM, respectively.

Take `CO[C@@H](C)c1c(Nc2ccc([C@H](N(C)C(=O)C3CCN(C(C)=O)CC3)C(F)(F)F)cc2)cnn1-c1ccccc1` [Compound 1.31]: the IC50 against full length MALT1 and with Jurkat IL-2 was 100 to 1000 nM each time.

Consider `CO[C@@H](C)c1c(Nc2ccc([C@H](N(C)C(=O)C3CCN(C(C)=O)CC3)C(F)(F)F)cc2)cnn1-c1ccccn1` [Compound 1.32], for which the concentration for half-maximal inhibition (IC50) was < 100 nM against full length MALT1 and 100 to 1000 nM in the test with Jurkat IL-2.

Regarding `CO[C@@H](C)c1c(Nc2ccc([C@H](N(C)C(=O)C3CCN(C(C)=O)CC3)C(F)(F)F)cc2)cnn1-c1ccncc1` [Compound 1.33], the IC50 against full length MALT1 and with Jurkat IL-2 was 100 to 1000 nM in each case.

`CC(=O)N1CC(C(=O)N(C)[C@@H](c2ccc(Nc3cnn(-c4cccnc4)c3C3CC3)cc2)C(F)(F)F)C1` [Compound 1.41] displayed an IC50 with Jurkat IL-2 of 100 to 1000 nM.
